Reference: patent publication US9510598B2, “Nitrogen-containing heterocyclic compounds for plant disease control” (BAYER CROPSCIENCE AG, priority 2012, dated 2016)
Where two headings read alike, the source gives them in different places.

Type: physicochemical
Conditions: for Log P: method [a]: HPLC/LC-MS on reversed phase at pH 2.7, 0.1% formic acid in water and acetonitrile; for chromatographic logP: reversed phase HPLC column, HPLC reversed phase, pH 2.7, 0.1% formic acid in water / acetonitrile, calibration with alkan-2-ones, read-out: log P (HCOOH)
[1] = HPLC on reversed phase columns, method [a]: pH 2.7, 0.1% formic acid in water / acetonitrile, linear gradient 10% to 95% acetonitrile
[2] = HPLC on reversed phase columns, method [a]: pH 2.7, 0.1% formic acid in water and acetonitrile, linear gradient 10% to 95% acetonitrile
[3] = method [a]: HPLC/LC-MS on reversed phase at pH 2.7, 0.1% formic acid in water / acetonitrile, gradient 10% to 95% acetonitrile
[4] = method [a]: HPLC/LC-MS on reversed phase at pH 2.7, 0.1% formic acid in water / acetonitrile, linear gradient 10% to 95% acetonitrile
[5] = linear gradient 10% to 95% acetonitrile

| log P [1] | log P [2] | Compound | other results |
| --- | --- | --- | --- |
| 2.62[a] |  | COC1(C(=O)NCc2cnc(C)cn2)CC(c2cc(Cl)c3ncc(Br)cc3c2)=NO1 (centres unmarked) [compound 575] |  |
| 2.80[a] |  | CCCn1cc(CNC(=O)C2(C(C)=O)CC(c3ccc4ncc(Br)cc4c3)=NO2)c(C)n1 (centres unmarked) [compound 586] |  |
|  | 2.48[a] | CC1(C(=O)NCc2cc(C#N)ccn2)CC(c2ccc3ncc(Br)cc3c2)=NO1 (centres unmarked) [compound 748] |  |
| 3.54[a] |  | COc1nc2ccc(C3=NOC(C)(C(=O)NC(C)C)C3)cc2cc1Br (centres unmarked) [compound 275] |  |
| 3.96^[a] |  | CC1(C(=O)NCC2CCCCC2)CC(c2ccc3ncc(Br)cc3c2)=NO1 (centres unmarked) [compound 249] |  |
| 2.57[a] |  | C#CC1(C(=O)NCc2cn(CC)nc2C)CC(c2ccc3ncc(Br)cc3c2)=NO1 (centres unmarked) [compound 626] |  |
|  | 2.51[a] | CC(NNC(=O)C1(C)CC(c2ccc3ncc(Br)cc3c2)=NO1)C1CC1 (centres unmarked) [compound 767] |  |
| 1.98^[a] |  | C#CCOc1coc(CNC(=O)C2(C)CC(c3ccc4ncc(C#C)cc4c3)=NO2)cc1=O (centres unmarked) [compound 233] |  |
|  | 2.75[a] | CCC(C#N)NC(=O)C1(C)CC(c2ccc3ncc(Br)cc3c2)=NO1 (centres unmarked) [compound 721] |  |
| 3.87[a] |  | CC(NC(=O)C1(C)CC(c2ccc3ncc(Br)cc3c2)=NO1)c1ccc(Cl)cc1 (centres unmarked) [compound 348] |  |
|  |  | CC1(C)OCC(CNC(=O)C23CC2C(c2ccc4ncc(Br)cc4c2)=NO3)O1 (racemic) [compound 400] | log P [3]: 2.75[a] |
| 3.04[a] |  | Cc1nn(C2CCCC2)cc1CNC(=O)C1(C)CC(c2ccc3ncc(Br)cc3c2)=NO1 (centres unmarked) [compound 630] |  |
|  |  | CCC(C)NC(=O)C1(C)CC(c2cc3cc(Br)cnc3c(F)c2OC)=NO1 (centres unmarked) [compound 27] | log P [4]: 3.29^[a] |
| 2.23^[a] |  | CC1(C(=O)NC2CCCCNC2=O)CC(c2ccc3ncc(Br)cc3c2)=NO1 (centres unmarked) [compound 252] |  |
|  |  | COc1ccc(CNC(=O)C2(C)CC(c3cc4cc(Br)cnc4c(F)c3F)=NO2)cc1OC (centres unmarked) [compound 19] | Log P [5]: 3.02^[a] |
| 2.66[a] |  | COc1ccc(CNC(=O)C2(C)CC(c3ccc4ncc(Br)cc4c3)=NO2)cn1 (centres unmarked) [compound 679] |  |
|  |  | CC1(C(=O)NCc2cccc3ccccc23)CC(c2ccc3ncc(Br)cc3c2)=NO1 (centres unmarked) [compound 224] | log P [4]: 3.85^[a] |
|  |  | O/N=C(\Cl)c1ccc2ncc(I)cc2c1 [3-Iodo-N-hydroxyquinoline-6-carboximidoyl chloride] | chromatographic logP [5]: 2.63 |
| 1.99^[a] |  | CC1(C(=O)NC2COC2)CC(c2ccc3ncc(Br)cc3c2)=NO1 (centres unmarked) [compound 235] |  |
|  |  | CC1(C(=O)NCC2CCC(C(F)(F)F)CC2)CC(c2ccc3ncc(Br)cc3c2)=NO1 (centres unmarked) [compound 119] | log P [4]: 4.01^[a] |
|  |  | CC(C)NC(=O)C1(CCl)CC(c2ccc3ncc(Br)cc3c2)=NO1 (centres unmarked) [compound 139] | log P [4]: 3.01^[a] |
| 2.42[a] |  | CC1(C(=O)NCc2cnn(CC(F)F)c2)CC(c2ccc3ncc(Br)cc3c2)=NO1 (centres unmarked) [compound 646] |  |
|  |  | C#Cc1cnc2ccc(C3=NOC(C)(C(=O)NC4=NCCO4)C3)cc2c1 (centres unmarked) [compound 460] | log P [3]: 1.52[a] |
| 3.27[a] |  | CC1CCCC1(C#N)NC(=O)C1(C)CC(c2ccc3ncc(Br)cc3c2)=NO1 (centres unmarked) [compound 313] |  |
| 4.16[a] |  | CC(NC(=O)C1(C)CC(c2ccc3ncc(Br)cc3c2)=NO1)c1ccc(OC(F)(F)F)cc1 (centres unmarked) [compound 344] |  |

| log P [1] | log P [2] | Compound | other results |
| --- | --- | --- | --- |
| 2.73[a] |  | C#Cc1cnc2ccc(C3=NOC(C(=O)NC(C)C)(C(F)F)C3)cc2c1 (centres unmarked) [compound 616] |  |
| 2.96[a] |  | CCCCn1cc(CNC(=O)C2(C)CC(c3ccc4ncc(Br)cc4c3)=NO2)c(C)n1 (centres unmarked) [compound 657] |  |
|  | 2.05[a] | CCc1ccc(CNC(=O)C2(C)CC(c3ccc4ncc(Br)cc4c3)=NO2)nc1 (centres unmarked) [compound 744] |  |
|  |  | CCn1cc(CNC(=O)C2(C)CC(c3ccc4ncc(S(C)(=O)=O)cc4c3)=NO2)c(C)n1 (centres unmarked) [compound 151] | log P [4]: 1.6^[a] |
|  | 1.74[a] | C#Cc1cnc2ccc(C3=NOC(C)(C(=O)NCc4cncnc4)C3)cc2c1 (centres unmarked) [compound 697] |  |
| 2.37[a] |  | CC(=O)C1(C(=O)NCc2cnc(C)cn2)CC(c2ccc3ncc(Br)cc3c2)=NO1 (centres unmarked) [compound 584] |  |
|  |  | CC1(C(=O)NCc2ccc3c(c2)OCCO3)CC(c2ccc3ncc(Br)cc3c2)=NO1 (centres unmarked) [compound 118] | log P [4]: 3.04^[a] |
|  | 2.10[a] | CC1(C(=O)NCc2cnccn2)CC(c2ccc3ncc(Br)cc3c2)=NO1 (centres unmarked) [compound 706] |  |
|  |  | CC1(C(=O)NCc2ccc3ccccc3n2)CC(c2ccc3ncc(Br)cc3c2)=NO1 (centres unmarked) [compound 165] | log P [4]: 2.75^[a] |
|  | 2.78[a] | C#CC1(C(=O)NCc2cn(CCC)nc2C)CC(c2ccc3ncc(Br)cc3c2)=NO1 (centres unmarked) [compound 700] |  |
| 2.62[a] |  | C#Cc1cnc2c(C)cc(C3=NOC(OC)(C(=O)NCc4cn(CC)nc4C)C3)cc2c1 (centres unmarked) [compound 609] |  |
|  | 2.05[a] | C#Cc1cnc2ccc(C3=NOC(C)(C(=O)NCc4ccc(OC)nn4)C3)cc2c1 (centres unmarked) [compound 687] |  |
|  | 6.11[a] | CC1(C(=O)N(Cc2cc(F)cc3c2C(C)(C)CCC3)C2CC2)CC(c2ccc3ncc(Br)cc3c2)=NO1 (centres unmarked) [compound 815] |  |
|  | 2.32[a] | C#Cc1cnc2ccc(C3=NOC(C)(C(=O)NCc4ccnc(SC)c4)C3)cc2c1 (centres unmarked) [compound 798] |  |
|  |  | O/N=C/c1ccc2ncc(I)cc2c1 [1-(3-iodoquinolin-6-yl)-N-hydroxymethanimine] | chromatographic logP [5]: 1.98 |
|  | 2.23[a] | C#Cc1cnc2ccc(C3=NOC(C)(C(=O)NCc4cccnc4F)C3)cc2c1 (centres unmarked) [compound 783] |  |
| 4.46^[a] |  | C#Cc1cnc2ccc(C3=NOC(C)(C(=O)NCC4C5CC6CC(C5)CC4C6)C3)cc2c1 (centres unmarked) [compound 250] |  |
|  |  | CC(C)NC(=O)C1(C[Si](C)(C)C)CC(c2ccc3ncc(Br)cc3c2)=NO1 (centres unmarked) [compound 395] | log P [3]: 4.66[a] |
|  | 1.88[a] | CC1(C(=O)NCc2cccnc2O)CC(c2ccc3ncc(Br)cc3c2)=NO1 (racemic) [compound 817] |  |
|  | 1.88[a] | CCc1cccc(CNC(=O)C2(C)CC(c3ccc4ncc(Br)cc4c3)=NO2)n1 (centres unmarked) [compound 746] |  |
| 2.26[a] |  | COc1cccnc1CNC(=O)C1(C)CC(c2ccc3ncc(Br)cc3c2)=NO1 (centres unmarked) [compound 644] |  |
|  | 2.73[a] | CC1(C(=O)NCc2cnc(Cl)cn2)CC(c2ccc3ncc(Br)cc3c2)=NO1 (centres unmarked) [compound 790] |  |
| 3.06[a] |  | C#Cc1cnc2c(C)cc(C3=NOC(C)(C(=O)NC(C)C)C3)cc2c1 (centres unmarked) [compound 571] |  |
| 3.50[a] |  | C#Cc1cnc2ccc(C3=NOC(C)(C(=O)N(OC)C(C)CC)C3)cc2c1 (centres unmarked) [compound 658] |  |
|  | 2.86[a] | CC1(C(=O)NC2CC(F)(F)C2)CC(c2ccc3ncc(Br)cc3c2)=NO1 (centres unmarked) [compound 755] |  |

| log P [1] | log P [2] | Compound | other results |
| --- | --- | --- | --- |
|  |  | O=C(NC1CC1)C1(Cc2ccccc2)CC(c2ccc3ncc(Br)cc3c2)=NO1 (centres unmarked) [compound 60] | log P [4]: 3.46^[a] |
| 2.53[a] |  | C#Cc1cnc2c(Cl)cc(C3=NOC(OC)(C(=O)NCc4cn(CC)nc4C)C3)cc2c1 (centres unmarked) [compound 587] |  |
|  |  | CCn1cc(CNC(=O)C2(C)CC(c3cc4cc(Br)cnc4c(F)c3F)=NO2)cn1 (centres unmarked) [compound 13] | Log P [5]: 2.5^[a] |
|  | 2.88[a] | C#Cc1cnc2ccc(C3=NOC(C)(C(=O)NCC4CCC4)C3)cc2c1 (centres unmarked) [compound 778] |  |
|  |  | CC1CCCC(C)C1NC(=O)C1(C)CC(c2ccc3ncc(Br)cc3c2)=NO1 (racemic) [compound 372] | log P [3]: 4.29[a] |
|  | 1.70[a] | C#Cc1cnc2ccc(C3=NOC(C)(C(=O)NCc4cccnc4C#N)C3)cc2c1 (centres unmarked) [compound 812] |  |
|  | 3.06[a] | C#Cc1cnc2ccc(C3=NOC(C)(C(=O)NCc4ccnc(OC(C)CC)c4)C3)cc2c1 (centres unmarked) [compound 760] |  |
| 2.26[a] |  | C#Cc1cnc2ccc(C3=NOC(C)(C(=O)NCc4cn(C5CC5)nc4C)C3)cc2c1 (centres unmarked) [compound 668] |  |
| 3.17[a] |  | CC(C)NC(=O)C1(C(F)F)CC(c2ccc3ncc(I)cc3c2)=NO1 (centres unmarked) [compound 620] |  |
|  |  | CC1(C(=O)NCc2ccnc(N3CCCC3)c2)CC(c2ccc3ncc(Br)cc3c2)=NO1 (centres unmarked) [compound 158] | log P [4]: 1.53^[a] |
|  | 3.25[a] | CC1(C(=O)NCC2CCC2)CC(c2ccc3ncc(Br)cc3c2)=NO1 (centres unmarked) [compound 775] |  |
| 2.96[a] |  | CCn1cc(CNC(=O)C2(OC)CC(c3cc(C)c4ncc(Br)cc4c3)=NO2)c(C)n1 (centres unmarked) [compound 600] |  |
|  | 1.29[a] | C#Cc1cnc2ccc(C3=NOC(C)(C(=O)NCc4ccncc4C)C3)cc2c1 (centres unmarked) [compound 683] |  |
|  |  | O/N=C(\Cl)c1ccc2ncc(Cl)cc2c1 [3-chloro-N-hydroxyquinoline-6-carboximidoyl chloride] | chromatographic logP [5]: 1.96 |
|  |  | C#Cc1cnc2ccc(C3=NOC(C)(C(=O)NC(COC)COC)C3)cc2c1 (centres unmarked) [compound 459] | log P [3]: 2.30[a] |
|  | 2.35[a] | CC1(C(=O)NCc2cncc(C#N)c2)CC(c2ccc3ncc(Br)cc3c2)=NO1 (centres unmarked) [compound 782] |  |
| 2.01[a] |  | C#Cc1cnc2ccc(C3=NOC(C)(C(=O)NCc4ncccc4OC)C3)cc2c1 (centres unmarked) [compound 645] |  |
|  | 2.51[a] | CC1(C(=O)NCc2ccnc(F)c2)CC(c2ccc3ncc(Br)cc3c2)=NO1 (centres unmarked) [compound 803] |  |
| 1.76[a] |  | C#Cc1cnc2ccc(C3=NOC(C)(C(=O)NC(C)c4nn(C)c(=O)n4C)C3)cc2c1 (centres unmarked) [compound 352] |  |
| 2.26[a] |  | C#Cc1cnc2ccc(C3=NOC(C)(C(=O)NCC(F)F)C3)cc2c1 (centres unmarked) [compound 652] |  |
|  | 2.27[a] | CC1(C(=O)NCc2ccncc2F)CC(c2ccc3ncc(Br)cc3c2)=NO1 (centres unmarked) [compound 811] |  |
| 2.69[a] |  | CC(C)NC(=O)C1(F)CC(c2ccc3ncc(Br)cc3c2)=NO1 (centres unmarked) [compound 280] |  |
|  |  | CC1(C(=O)NC2CC2)CC(c2ccc3ncccc3c2)=NO1 (centres unmarked) [compound 3] | Log P [5]: 1.04^[a] |
|  |  | CC(C)NC(=O)C1(c2ccccc2)CC(c2ccc3ncc(Br)cc3c2)=NO1 (centres unmarked) [compound 136] | log P [4]: 3.78^[a] |
